Test [1] addresses T1, MMP2 (Homo sapiens, UniProt P08253).
T1 sequence (P08253 110-660): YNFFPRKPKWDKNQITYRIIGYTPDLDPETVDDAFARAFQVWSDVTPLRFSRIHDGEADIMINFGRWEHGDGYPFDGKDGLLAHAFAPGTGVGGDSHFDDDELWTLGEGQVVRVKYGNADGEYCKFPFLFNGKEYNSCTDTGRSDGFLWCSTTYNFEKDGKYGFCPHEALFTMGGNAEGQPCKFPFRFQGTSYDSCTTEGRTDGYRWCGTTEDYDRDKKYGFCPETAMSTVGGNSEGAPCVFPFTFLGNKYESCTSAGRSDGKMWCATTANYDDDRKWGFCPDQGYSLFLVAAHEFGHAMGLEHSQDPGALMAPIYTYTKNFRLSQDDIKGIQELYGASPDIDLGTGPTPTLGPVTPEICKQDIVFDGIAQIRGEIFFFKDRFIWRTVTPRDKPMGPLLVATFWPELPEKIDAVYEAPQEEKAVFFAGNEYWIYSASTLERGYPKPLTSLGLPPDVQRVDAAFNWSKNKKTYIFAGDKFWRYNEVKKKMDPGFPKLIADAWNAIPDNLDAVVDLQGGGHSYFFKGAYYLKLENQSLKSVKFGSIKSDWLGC
As to the kind of experiment: Ilomastat inhibition of MMP2 activity. It is filed as biochemical. The note with it: 910 μM ilomastat, MMP2 1.4 μg, 37 °C, 24 hours, HPLC of fragmented peptide.

Test [2] relates to Integrin αvβ3. The note with it: read-out: IC50 value by cell adhesion; cited from earlier work.
The test system of test [3] is Integrin αvβ3. The following applies: read-out: IC50 value by fluorescence polarization; cited from earlier work.
For test [4], the system named is αvβ3. The following applies: read-out: IC50 value; published pentapeptides; cited from earlier work.
Test [5] concerns αvβ3. The note with it: read-out: IC50 value; published pentapeptides; cited from earlier work. This is another data set of the same source.

Like-named read-outs stand apart in the source and are kept apart here.

In the case of `CNC(=O)[C@H](Cc1c[nH]c2ccccc12)NC(=O)[C@@H](CC(=O)NO)CC(C)C` [ilomastat, N-[(2R)-2-(hydroxamidocarbonylmethyl)-4-methylpentanoyl]-L-tryptophan methylamide], the “inhibition of MMP2 cleavage of [64Cu]c(RGDfE)K(DOTA)PLGVRY” value in test [1] is reported as “inhibition of the peptide cleavage”. Take c(ERGDf) (head to tail): the IC50 is 3.2 ± 0.16 µM in test [2] and 0.28 ± 0.004 µM in test [3]. Take c(rGDFV) (head to tail): the IC50 in test [4] was 25 ± 4 µM. As for c(RGDfK), the IC50 in test [5] was 0.0042 µM.

Source of the values: article PMC4857598 (Nuclear medicine and biology, 2012).
